These results are taken from PubChem BioAssay (NCI).

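A five-concentration, 48-hour dose response in 96-well plates underlies each endpoint, interpolated linearly between surrounding concentrations. Definition used: TGI = concentration required for complete inhibition of growth.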 *1 amine or outer side, *2 acyl side, *3 side chain or, on linkers, in order; H or OH if unused. Where a SMILES comes first, the peptide text is derived from it. [ ]: non-standard residue; d: D form. The star is where a group is joined. X31 = CC(=O)N(C)SCC(N[*:1])C(=O)[*:2]; X47 = CC(=O)N(C)SCC(N*)/C(O)=N\O; Cbz = O=C(OCc1ccccc1)*; Bn = c1ccc(C*)cc1; For = O=C* Where only a bound is given, the exact number is not on record here.

Test systems include EKVX NSCLC; OVCAR-8 ovarian; UACC-257 melanoma; NCI-H226 lung; CCRF-CEM leukemia; MDA-MB-435; RPMI-8226 leukemia; PC-3 prostate; LOX IMVI melanoma; SF-268 CNS.
Holding throughout (assay): growth of human tumour cells (NCI), 48 h

`O=C(Nc1nnc(-c2ccccc2)o1)C(SC(=S)N1CCCCC1)c1ccccc1` (configuration not stated): the TGI in the experiment with EKVX NSCLC was 64.2 µM; with OVCAR-8 ovarian, over 100 µM; in the experiment on UACC-257 melanoma it was over 100 µM; in the experiment with NCI-H226 lung, 93.5 µM; with CCRF-CEM leukemia, 14.1 µM; in the experiment on MDA-MB-435, 73.3 µM. Moreover, the TGI with RPMI-8226 leukemia was over 100 µM; in the experiment with PC-3 prostate it was 96.2 µM; with LOX IMVI melanoma it was 18 µM.

As to `CN(C)c1ccc(/C=c2/c3ccccc3n3c2c2ccccc2[n+]3C)cc1`, the TGI amounted to 23.5 µM in the experiment with EKVX NSCLC; 1.98 µM with SF-268 CNS; 2.34 µM in the experiment on OVCAR-8 ovarian; 1.51 µM in the experiment on UACC-257 melanoma; 15.3 µM in the experiment with NCI-H226 lung; 1.23 µM with CCRF-CEM leukemia. In addition, the TGI in the experiment on MDA-MB-435 turned out to be 1.87 µM; in the experiment with RPMI-8226 leukemia, 0.581 µM; in the experiment with PC-3 prostate, 1.54 µM; in the experiment on LOX IMVI melanoma, 1.98 µM.

On to `CC1(C)[C@H](C(=O)O)N2C(=O)[C@@H](NS(=O)(=O)c3ccc([N+](=O)[O-])cc3)[C@H]2S1(=O)=O`, for which the TGI with EKVX NSCLC, in the experiment with SF-268 CNS, with OVCAR-8 ovarian, in the experiment with UACC-257 melanoma, in the experiment on NCI-H226 lung and with CCRF-CEM leukemia was over 100 µM in each case. Also, the TGI with MDA-MB-435, in the experiment with PC-3 prostate and in the experiment with LOX IMVI melanoma was over 100 µM each time.

On to `COc1ccc(/C=C2\CCC(C)C3=C(c4ccc(OC)c(OC)c4)C(C#N)=C(N)OC32)cc1OC` (configuration not stated), for which the TGI with EKVX NSCLC was 8.12 µM; with SF-268 CNS, over 100 µM; in the experiment on OVCAR-8 ovarian, over 100 µM; with UACC-257 melanoma, 37 µM; in the experiment with NCI-H226 lung it was 9.83 µM; in the experiment on CCRF-CEM leukemia, 19.2 µM. In addition, the TGI in the experiment on MDA-MB-435 stood at 10.1 µM; in the experiment with RPMI-8226 leukemia, 5.76 µM; in the experiment on PC-3 prostate it was 38.1 µM; in the experiment on LOX IMVI melanoma, 10.9 µM.

On to `O=C(CN1CCN(Cc2ccccc2)CC1)c1ccc2[nH]c(=O)oc2c1`, for which the TGI in the experiment on EKVX NSCLC, in the experiment on SF-268 CNS, with OVCAR-8 ovarian, in the experiment on UACC-257 melanoma, with NCI-H226 lung and with CCRF-CEM leukemia was over 100 µM each time. For the same compound, the TGI in the experiment on MDA-MB-435, in the experiment with RPMI-8226 leukemia, in the experiment with PC-3 prostate and in the experiment on LOX IMVI melanoma was over 100 µM each time.

With `NCCSc1nc2ccccc2s1`, the TGI in the experiment on EKVX NSCLC was 80.6 µM; with SF-268 CNS, 86 µM; in the experiment on OVCAR-8 ovarian, over 100 µM; in the experiment on UACC-257 melanoma, over 100 µM; with NCI-H226 lung it was 92.9 µM; in the experiment with CCRF-CEM leukemia it was over 100 µM. For the same compound, the TGI in the experiment with MDA-MB-435 is 69 µM; in the experiment with RPMI-8226 leukemia, 95.7 µM; with PC-3 prostate, over 100 µM; in the experiment on LOX IMVI melanoma it was 90.8 µM.

As for `CC1=NCCN=C(C)C1N=Nc1ccc2nc(C)[nH]c2c1`, the TGI is 39.6 µM in the experiment with EKVX NSCLC; 46.4 µM with SF-268 CNS; 85.1 µM in the experiment with OVCAR-8 ovarian; 28.6 µM in the experiment on UACC-257 melanoma; 44.1 µM in the experiment on NCI-H226 lung; 16.8 µM in the experiment on CCRF-CEM leukemia. The TGI amounted to 22.3 µM in the experiment with MDA-MB-435, 17.4 µM in the experiment with RPMI-8226 leukemia, 22.3 µM in the experiment with PC-3 prostate and 98.8 µM in the experiment on LOX IMVI melanoma.

Turning to `ClCCCN(CCCCl)c1ccc(C=Nc2cccc(Cl)c2)cc1`, the TGI was over 100 µM in the experiment on EKVX NSCLC; over 71.1 µM in the experiment on SF-268 CNS; 56.5 µM with OVCAR-8 ovarian; over 77 µM with UACC-257 melanoma; 8.67 µM in the experiment with NCI-H226 lung; 65.2 µM in the experiment on CCRF-CEM leukemia. The TGI in the experiment with MDA-MB-435 was over 80.5 µM; in the experiment on RPMI-8226 leukemia it was 55 µM; in the experiment with PC-3 prostate it was 50.7 µM; in the experiment on LOX IMVI melanoma it was over 100 µM.

As for `COc1ccc(/C=C2\CCCC(CN(C)C)C2=O)cc1` (configuration not stated), the TGI in the experiment with EKVX NSCLC is 24.8 µM; in the experiment with SF-268 CNS it was 11 µM; in the experiment on OVCAR-8 ovarian, 26.4 µM; with UACC-257 melanoma it was 8.96 µM; in the experiment with NCI-H226 lung, 33.5 µM; in the experiment on CCRF-CEM leukemia it was over 100 µM. For the same compound, the TGI came to 6.96 µM with MDA-MB-435, 0.433 µM in the experiment on RPMI-8226 leukemia, 18.4 µM with PC-3 prostate and 4 µM with LOX IMVI melanoma.

In the case of `CCC1=NC(N/N=C/c2ccco2)=N/C1=C\c1ccccc1O`, the TGI was over 100 µM with EKVX NSCLC; over 100 µM in the experiment on SF-268 CNS; over 100 µM in the experiment on OVCAR-8 ovarian; over 100 µM in the experiment on UACC-257 melanoma; over 100 µM with NCI-H226 lung; 70.4 µM with CCRF-CEM leukemia. For the same compound, the TGI in the experiment with MDA-MB-435, in the experiment on RPMI-8226 leukemia, in the experiment on PC-3 prostate and in the experiment with LOX IMVI melanoma was over 100 µM in each case.

Consider `CC(=O)N(C)SCC(NC(=O)C(Cc1ccccc1)NC(=O)OCc1ccccc1)C(=O)NC(Cc1ccccc1)C(=O)NC(Cc1cn(C=O)c2ccccc12)C(=O)NC(CCCCNC(=O)OCc1ccccc1)C(=O)NC(C(=O)NC(CSN(C)C(C)=O)/C(O)=N\O)C(C)OCc1ccccc1` (configuration not stated) (Cbz-F[X31]FW(For)K(Cbz)T(Bn)-X47; configuration not given here), for which the TGI in the experiment on EKVX NSCLC, in the experiment on SF-268 CNS, in the experiment on OVCAR-8 ovarian, in the experiment on UACC-257 melanoma, in the experiment with NCI-H226 lung and in the experiment on CCRF-CEM leukemia was over 100 µM throughout. Also, the TGI in the experiment on MDA-MB-435, in the experiment with RPMI-8226 leukemia, with PC-3 prostate and in the experiment on LOX IMVI melanoma was over 100 µM in each case.

Regarding `COc1cc(C=O)ccc1Oc1nnnn1-c1ccccc1`, the TGI with EKVX NSCLC is over 100 µM; with SF-268 CNS, over 100 µM; in the experiment on OVCAR-8 ovarian it was over 100 µM; in the experiment with UACC-257 melanoma it was over 100 µM; with NCI-H226 lung it was 56.7 µM; in the experiment on CCRF-CEM leukemia it was 52.4 µM. The TGI in the experiment on MDA-MB-435 is over 100 µM; in the experiment on RPMI-8226 leukemia, 98.2 µM; in the experiment on PC-3 prostate, over 100 µM; in the experiment on LOX IMVI melanoma, over 100 µM.

As to `CC(=O)OC1=c2ccccc2=C(O)C2C1C=NN2C(C)=O` (configuration not stated), the TGI with EKVX NSCLC, with SF-268 CNS, with OVCAR-8 ovarian, with UACC-257 melanoma, in the experiment on NCI-H226 lung and in the experiment on CCRF-CEM leukemia was over 100 µM in each case. The TGI with MDA-MB-435, with RPMI-8226 leukemia, in the experiment with PC-3 prostate and in the experiment with LOX IMVI melanoma was over 100 µM in each case.

Take `C=CCN1CCC(OC(=O)C(O)(C#CC)C2CCCC2)CC1` (configuration not stated): the TGI in the experiment on EKVX NSCLC, with SF-268 CNS, in the experiment on OVCAR-8 ovarian, in the experiment with UACC-257 melanoma, in the experiment on NCI-H226 lung and in the experiment on CCRF-CEM leukemia was over 100 µM in each case. Also, the TGI in the experiment on MDA-MB-435, in the experiment with RPMI-8226 leukemia, in the experiment on PC-3 prostate and in the experiment with LOX IMVI melanoma was over 100 µM in each case.

As to `COc1cc(C2SC(N)=Nc3c2c(C)nn3C(=O)c2ccccc2O)cc(OC)c1OC` (configuration not stated), the TGI with EKVX NSCLC, in the experiment with SF-268 CNS, with OVCAR-8 ovarian, in the experiment with UACC-257 melanoma, in the experiment with NCI-H226 lung and in the experiment on CCRF-CEM leukemia was over 10 µM in each case. Further, the TGI with MDA-MB-435, with RPMI-8226 leukemia, in the experiment on PC-3 prostate and with LOX IMVI melanoma was over 10 µM throughout.

Consider `CCOC(=O)c1cnn2c1ncc1c(=O)n(NC(N)=O)ccc12`, for which the TGI in the experiment with EKVX NSCLC, in the experiment on SF-268 CNS, in the experiment on OVCAR-8 ovarian, in the experiment with UACC-257 melanoma, in the experiment on NCI-H226 lung and with CCRF-CEM leukemia was over 100 µM in each case. Besides, the TGI in the experiment with MDA-MB-435, with PC-3 prostate and with LOX IMVI melanoma was over 100 µM in each case.

As for `COc1cc(-c2cn(S(=O)(=O)c3ccc(C)cc3)c3ccccc23)nc(-c2cn(S(=O)(=O)c3ccc(C)cc3)c3ccccc23)n1`, the TGI in the experiment with EKVX NSCLC is over 100 µM; in the experiment on OVCAR-8 ovarian, over 100 µM; in the experiment with UACC-257 melanoma it was over 100 µM; in the experiment on NCI-H226 lung, over 100 µM; with CCRF-CEM leukemia, 24.7 µM; in the experiment on MDA-MB-435 it was 0.47 µM. Further, the results for the TGI in the experiment on RPMI-8226 leukemia, in the experiment on PC-3 prostate and in the experiment on LOX IMVI melanoma were over 100 µM, 38.5 µM and over 100 µM, respectively.

For `COc1cc(Cc2cc3c(c(C(=O)O)c2Br)OCO3)cc(OC)c1OC`, the TGI in the experiment with EKVX NSCLC, with OVCAR-8 ovarian, in the experiment with UACC-257 melanoma, in the experiment with NCI-H226 lung, in the experiment on CCRF-CEM leukemia and with MDA-MB-435 was over 100 µM in each case. For the same compound, the TGI with PC-3 prostate and in the experiment on LOX IMVI melanoma was over 100 µM in each case.

For the compound `O=C1c2c(Cl)c(Cl)c(Cl)c(Cl)c2C(=O)N1CCN(c1c(Cl)ssc1=O)c1c(Cl)ssc1=O`, the TGI was 88.6 µM in the experiment with EKVX NSCLC; over 100 µM in the experiment with SF-268 CNS; 44.6 µM in the experiment with OVCAR-8 ovarian; 31.5 µM with UACC-257 melanoma; over 100 µM with NCI-H226 lung; 72 µM in the experiment with CCRF-CEM leukemia. Moreover, the TGI worked out at 45.4 µM in the experiment with MDA-MB-435, 56.8 µM in the experiment on PC-3 prostate and 48.5 µM in the experiment with LOX IMVI melanoma.

Take `CN(C)C(Cc1cnc[nH]1)C(=O)N1CCCC1C(N)=O` (configuration not stated): the TGI in the experiment on EKVX NSCLC, with SF-268 CNS, in the experiment with OVCAR-8 ovarian, in the experiment on NCI-H226 lung, in the experiment on CCRF-CEM leukemia and in the experiment with MDA-MB-435 was over 100 µM throughout. Besides, the TGI in the experiment on RPMI-8226 leukemia, with PC-3 prostate and in the experiment on LOX IMVI melanoma was over 100 µM throughout.
